In patent publication US20230129485A1, “SYSTEM AND METHOD FOR DETERMINING MATERIAL PROPERTIES OF MOLECULAR SYSTEMS FROM AN AB-INITIO PARAMETERIZED FORCE-FIELD” (InterX, Inc., priority 2021, published 2023):
Like-named read-outs stand apart in the source and are kept apart here.

Tests used:
[1] = Table 5; free energy of hydration, AMOEBA prediction taken from literature; cited from earlier work
[2] = experimental, cited from earlier work
[3] = Free energy of hydration predicted by General Amber Force Field (GAFF), from literature; details: Table 5; error of GAFF hydration free energy vs experiment
[4] = Free energy of hydration predicted with the QM-parameterized force field model (ARROW FF), classical MD and PIMD simulation in a water box; details: for Arrow error: Table 5, error of Arrow PIMD8 hydration free energy vs experiment; for Arrow PIMD8 Error: absolute error vs Exp (hydration)
Method in brief: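 Classical and PIMD runs (MTS integrator, MTTK barostat at 1 atm) followed minimization and 50 ps equilibration, with 1 ns NPT production per window. Fifteen unequally spaced lambda windows removed all solute-solvent interactions simultaneously in a 32 Å water box. Hydration free energy computed by Bennett acceptance ratio and thermodynamic integration.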

[5] = Free energy of hydration by Polarizable Continuum Model (PCM); details: absolute error vs Exp (hydration)
Method in brief: (§1)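 Hydration energies come from continuum solvent models. Those for COSMO were computed with MolPro. SMD and PCM results were received, and the SMD, PCM and COSMO-RS sets each cover just the molecules in common with the QM-parameterized force-field calculations.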

[6] = implicit solvent model, values received; cited from earlier work
[7] = Free energy of hydration by Solvation Model Dielectric (SMD) implicit solvent model; details: absolute error vs Exp (hydration)
Method in brief: as §1

[8] = Free energy of hydration by COSMO-RS
Method in brief: as §1

[9] = Free energy of hydration by Free Energy Machine Learning Model (FML); details: absolute error vs Exp (hydration)
Source text: Machine learning models can be used for free energy determination.

[10] = Free energy of hydration predicted by polarizable AMOEBA force field, from literature; details: Table 5; error of AMOEBA hydration free energy vs experiment
[11] = experimental, cited from earlier work; for Exp (hydration): Table 5
[12] = implicit solvent model, values received; cited from earlier work; remark: listed apart in the source
[13] = Table 5; free energy of hydration, GAFF prediction taken from literature; cited from earlier work
[14] = Bulk solvent properties (density, heat of vaporization, self-solvation) predicted with the QM-parameterized force field model (AFF MD / PIMD); details: density, heat of vaporization, self-solvation; PIMD8
Source text: Particle-Mesh Ewald (PME) algorithm was used to compute the electrostatic interactions. A 32×32×32 grid mesh and 5th power spline interpolation order can be used to compute the inverse PME sum. 9 Å cutoffs were used to compute the direct PME sum as well as the exchange and dispersion interactions. Bulk corrections were applied to account for distance cut-off of dispersion interactions. Solvation free energies were computed by decoupling the interactions between the solute and the solvent molecules. Electrostatic, exchange-repulsion and dispersion interactions were switched off simultaneously using a lambda-dependent scaling (a scaling factor power=2 was used) and a soft-coring algorithm (maximal soft-coring radius=1.5 Å, soft-coring radius scaling factor power=1). 15 lambda points unequally spaced (X=0, 0.05, 0.1, 0.2, 0.3, 0.4, 0.5, 0.6, 0.7, 0.75, 0.8, 0.85, 0.9, 0.95, 1.0) were used to decouple the solute-solvent intermolecular interactions.
In some simulations of the QM-parameterized force field molecular simulation process, energy minimization (10,000 steps) using the steepest descent algorithm was initially performed on all the simulation systems. This was followed by a 50 ps equilibration and 1 ns production runs in the isothermal-isobaric ensemble (NPT). […] Pressure was maintained at 1 atm using a MTTK barostat (relaxation time=5 ps). […]

[15] = Free energy of hydration by COSMO implicit solvent model (MolPro ver. 2012); details: absolute error vs Exp (hydration)
Method in brief: as §1

[16] = Table 3; CHEX/H2O partition coefficient, experimental; cited from earlier work
[17] = CHEX/H2O partition coefficient (log D) predicted with the QM-parameterized force field model (ARROW FF)
Method in brief: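 Cyclohexane/water partition coefficients were predicted by molecular simulation with a QM-parameterized force field, with bonded force constants and equilibrium values fitted to MP2/aug-cc-pVTZ energies. Solutes carried neutral functional groups, and results from four independent groups were averaged.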

[18] = experimental; cited from earlier work
[19] = Free energy of solvation in cyclohexane predicted with the QM-parameterized force field model (ARROW FF), MD and PIMD; details: Table 4
Method in brief: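 Solute–cyclohexane interactions decoupled over 15 λ points with soft-core scaling, in MD and path-integral simulations under NPT at 1 atm using PME electrostatics and 9 Å cutoffs. Each window had 50 ps equilibration and 1 ns production; free energies from BAR and TI.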

[20] = Table 3, free energy of solvation in cyclohexane
[21] = Table 3, absolute error of MD hydration free energy vs experiment
[22] = Table 3, absolute error of PIMD8 hydration free energy vs experiment
[23] = Table 3, free energy of hydration

Structure (SMILES) | AMOEBA [1] [kcal/mol] | CHEX Exp (solvation) [2, 20] [kcal/mol] | GAFF error [3] [kcal/mol] | water Arrow MD Error [4, 21] [kcal/mol] | water Arrow PIMD8 Error [4, 22] [kcal/mol] | Arrow error [4] [kcal/mol] | Arrow PIMD8 Error [4] [kcal/mol] | PCM Error [5] [kcal/mol] | SMD free energy of hydration [6] [kcal/mol] | SMD Error [7] [kcal/mol] | COSMO-RS error [8] [kcal/mol] | FML error [9] [kcal/mol] | AMOEBA error [10] [kcal/mol] | water Exp (hydration) [11, 23] [kcal/mol] | Exp (hydration) ([11]; free energy of hydration) [kcal/mol] | PCM free energy of hydration [12] [kcal/mol] | GAFF [13] [kcal/mol] | COSMO/Molpro Error [15] [kcal/mol] | other results
CC(C)O [2-Propanol] | -4.21 | -2.37 | 1.34 | 1.26 | 0.00 | 0.00 | 0.00 | 1.52 | -4.30 | 0.32 | 0.00 | 0.29 | 0.41 | -4.62 | -4.62 | -3.10 | -3.28 | – | –
O [Water] | -5.86 | -0.39 | 0.26 | 0.51 | 0.17 | 0.17 | 0.17 | 1.60 | -8.00 | 1.70 | 2.53 | – | 0.44 | -6.30 | -6.30 | -4.70 | -6.04 | 2.29 | agreement of predicted bulk properties with experimental values [14]: ≤ 3%; Exp (log D) [16]: −4.33; log D Arrow MD Error [17]: 0.31; log D Arrow PIMD Error [17]: 0.17; Density [18]: 0.997 g/cc; Hvap [18]: 10.51 kcal/mol; self-solvation [18]: -6.30 kcal/mol; Hydration [11]: -6.30 kcal/mol
CCO [Ethanol] | -4.69 | -2.59 | 1.56 | 0.74 | 0.07 | 0.07 | 0.07 | 1.91 | -4.20 | 0.81 | 0.07 | 0.08 | 0.32 | -5.01 | -5.01 | -3.10 | -3.45 | 1.19 | CHEX Arrow MD Error ([19]; error of MD cyclohexane solvation free energy vs experiment): 0.05 kcal/mol; CHEX Arrow PIMD4 Error ([19]; error of PIMD4 cyclohexane solvation free energy vs experiment): 0.12 kcal/mol; CHEX Exp (solvation) ([2]; Table 4, solvation free energy in cyclohexane): -2.59 kcal/mol; water Arrow MD Error ([4]; Table 4, error of MD hydration free energy vs experiment): 0.74 kcal/mol; water Arrow PIMD8 Error ([4]; Table 4, error of PIMD8 hydration free energy vs experiment): 0.07 kcal/mol; water Exp (hydration) ([11]; Table 4, neutral amino-acid analogues): -5.01 kcal/mol
c1ccncc1 [pyridine] | -5.59 | -4.30 | 1.24 | 0.84 | 0.08 | 0.08 | 0.08 | 1.49 | -4.20 | 0.49 | 0.73 | 0.21 | 0.90 | -4.69 | -4.69 | -3.20 | -3.45 | 2.04 | –
